The source of these data is US11708344B2, “Flavone derivatives for the treatment and prophylaxis of hepatitis B virus disease” (Hoffmann-La Roche Inc., priority 2018, dated 2023).

By IC50 is commonly meant the concentration that gives 50% inhibition.

Structures are written as SMILES.

Series [1] can be described thus: Human microsome stability assay. Conditions: human liver microsomes, 1 μM test compound, 0.5 mg/mL microsomal protein, 37° C., pH 7.4, 0-30 minutes. It is filed as in vitro ADME. A digest of the protocol: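 Compound (1 μM) incubated at 37 °C with human liver microsomes (0.5 mg/mL protein) in 100 mM potassium phosphate, pH 7.4, after 10 min preincubation; started with NADPH regenerating system. Sampled at 0–30 min, quenched with cold ACN; remaining parent quantified by LC-MS/MS, with no-NADPH controls.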
For orientation: Liver microsomes are vesicles of endoplasmic reticulum, rich in cytochrome P450 enzymes.

In series [2] the test system is HBeAg (surrogate marker for cccDNA) in HepDES19 cells. Kind of series: Engineered HepDES19 primary screen assay (HBeAg ELISA). It counts as cell-based, HBV. The note with it: Hepatitis B virus, HepDES19, 120 h, read-out: IC50 (HBeAg level, HepDES19 primary screen assay), HepDES19 cells, 5 days compound incubation, HBeAg ELISA. The method, boiled down: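 HepDES19 cells were induced by Tet withdrawal for 8 days, then treated with half-log compound dilutions (1% DMSO final) for 5 days at 37 °C. HBeAg was measured by ELISA as the cccDNA surrogate, viability by CCK-8, and IC50 from a 4-parameter logistic fit.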
(In general: In an ELISA, binding on a coated surface is turned into a signal by an enzyme label.)

In the case of `O=c1cc(-c2ccccc2OCCO[C@H]2C[C@H](C(=O)O)C2)oc2c(C(F)(F)F)cccc12` [Example C047-B, Trans-3-[2-[2-[4-oxo-8-(trifluoromethyl)chromen-2-yl]phenoxy]ethoxy]cyclobutanecarboxylic acid], in series [1], the “Clearance of Human microsome” value worked out at 6.15 mL/min/kg. Besides, the IC50 in series [2] amounted to 14 µM.
For `Cc1ccc(OCCO[C@H]2C[C@@H](C(=O)O)C2)c(-c2cc(=O)c3cccc(Cl)c3o2)c1` [Example C050-A, Cis-3-[2-[2-(8-chloro-4-oxo-chromen-2-yl)-4-methyl-phenoxy]ethoxy]cyclobutanecarboxylic acid], in that order: 6.15 mL/min/kg and 15.6 µM.
Take `Cc1ccc(OCCO[C@H]2C[C@H](C(=O)O)C2)c(-c2cc(=O)c3cccc(Cl)c3o2)c1` [Example C050-B, Trans-3-[2-[2-(8-chloro-4-oxo-chromen-2-yl)-4-methyl-phenoxy]ethoxy]cyclobutanecarboxylic acid]: the “Clearance of Human microsome” value in series [1] is 6.15 mL/min/kg. The IC50 in series [2] worked out at 0.137 µM.
The corresponding values for `CCOc1ccc(OCCO[C@H]2C[C@@H](C(=O)O)C2)c(-c2cc(=O)c3cccc(Cl)c3o2)c1` [Example C051-A, Cis-3-[2-[2-(8-chloro-4-oxo-chromen-2-yl)-4-ethoxy-phenoxy]ethoxy]cyclobutanecarboxylic acid] are 6.15 mL/min/kg and 4.14 µM.
Regarding `CCOc1ccc(OCCO[C@H]2C[C@H](C(=O)O)C2)c(-c2cc(=O)c3cccc(Cl)c3o2)c1` [Example C051-B, Trans-3-[2-[2-(8-chloro-4-oxo-chromen-2-yl)-4-ethoxy-phenoxy]ethoxy]cyclobutanecarboxylic acid], the “Clearance of Human microsome” value in series [1] is reported as 7.85 mL/min/kg. For the same compound, the IC50 in series [2] was found to be 9.41 µM.
Regarding `O=c1cc(-c2ccc(OC(F)(F)F)cc2OCCO[C@H]2C[C@@H](C(=O)O)C2)oc2c(Cl)cccc12` [Example C052-A, Cis-3-[2-[2-(8-chloro-4-oxo-chromen-2-yl)-5-(trifluoromethoxy)phenoxy]ethoxy]cyclobutanecarboxylic acid], in series [1], the “Clearance of Human microsome” value is given as 9.08 mL/min/kg. Further, the IC50 in series [2] came to 5.99 µM.
Take `O=c1cc(-c2ccc(Br)cc2OCCCO[C@H]2C[C@@H](C(=O)O)C2)oc2c(Cl)cccc12` [Example C056-A, Cis-3-[3-[5-bromo-2-(8-chloro-4-oxo-chromen-2-yl)phenoxy]propoxy]cyclobutanecarboxylic acid]: the “Clearance of Human microsome” value in series [1] is 6.15 mL/min/kg. In addition, in series [2], the IC50 is 2.39 µM.
For `O=c1cc(-c2cc(Cl)c(Br)cc2OCCO[C@H]2C[C@@H](C(=O)O)C2)oc2c(Cl)cccc12` [Example C057-A, Cis-3-[2-[5-bromo-4-chloro-2-(8-chloro-4-oxo-chromen-2-yl)phenoxy]ethoxy]cyclobutanecarboxylic acid], in that order: 8.0 mL/min/kg and 5.01 µM.
The corresponding values for `COc1ccc(OCCOC2CC(C(=O)O)C2)c(-c2cc(=O)c3cccc(Cl)c3o2)c1` (centres unmarked) [Example C060, 3-[2-[2-(8-chloro-4-oxo-chromen-2-yl)-4-methoxy-phenoxy]ethoxy]cyclobutanecarboxylic acid] are 6.15 mL/min/kg and 9.81 µM.
On to `O=c1cc(-c2ccc(N3CCCC3)cc2OCCO[C@H]2C[C@@H](C(=O)O)C2)oc2c(Cl)cccc12` [Example C068, cis-3-[2-[2-(8-chloro-4-oxo-chromen-2-yl)-5-pyrrolidin-1-yl-phenoxy]ethoxy]cyclobutanecarboxylic acid], for which the “Clearance of Human microsome” value in series [1] was determined as 6.15 mL/min/kg. The IC50 in series [2] was 4.74 µM.
As for `O=c1cc(-c2cccc(Br)c2OCCO[C@H]2C[C@@H](C(=O)O)C2)oc2c(Cl)cc(F)cc12` [Example C070, Cis-3-[2-[2-bromo-6-(8-chloro-6-fluoro-4-oxo-chromen-2-yl)phenoxy]ethoxy]cyclobutanecarboxylic acid], the “Clearance of Human microsome” value in series [1] is on record as 9.42 mL/min/kg. Also, in series [2], the IC50 was found to be 13.1 µM.
Turning to `O=c1cc(-c2c(F)cc(Br)cc2OCCO[C@H]2C[C@@H](C(=O)O)C2)oc2c(Cl)cccc12` [Example C071, Cis-3-[2-[5-bromo-2-(8-chloro-4-oxo-chromen-2-yl)-3-fluoro-phenoxy]ethoxy]cyclobutanecarboxylic acid], the “Clearance of Human microsome” value in series [1] was 6.15 mL/min/kg. For the same compound, in series [2], the IC50 is 10.8 µM.
As for `COc1cc(OCCO[C@H]2C[C@@H](C(=O)O)C2)c(-c2cc(=O)c3cccc(Cl)c3o2)cc1OC` [Example C072, Cis-3-[2-[2-(8-chloro-4-oxo-chromen-2-yl)-4,5-dimethoxy-phenoxy]ethoxy]cyclobutanecarboxylic acid], the “Clearance of Human microsome” value in series [1] is recorded as 6.15 mL/min/kg. Also, in series [2], the IC50 worked out at 6.31 µM.
Consider `O=c1cc(-c2cc3c(cc2OCCO[C@H]2C[C@@H](C(=O)O)C2)OCCO3)oc2c(Cl)cccc12` [Example C074, Cis-3-[2-[[7-(8-chloro-4-oxo-chromen-2-yl)-2,3-dihydro-1,4-benzodioxin-6-yl]oxy]ethoxy]cyclobutanecarboxylic acid], for which the “Clearance of Human microsome” value in series [1] is given as 6.15 mL/min/kg. The IC50 in series [2] was found to be 7.28 µM.
The corresponding values for `Cc1cc(OCCO[C@H]2C[C@@H](C(=O)O)C2)c(-c2cc(=O)c3cccc(Cl)c3o2)cc1C(F)F` [Example C075, Cis-3-[2-[2-(8-chloro-4-oxo-chromen-2-yl)-4-(difluoromethyl)-5-methyl-phenoxy]ethoxy]cyclobutanecarboxylic acid] are 6.15 mL/min/kg and 10.9 µM.
`COc1cc(-c2cc(=O)c3cccc(Cl)c3o2)c(OCCO[C@H]2C[C@@H](C(=O)O)C2)cc1O` [Example C076, Cis-3-[2-[2-(8-chloro-4-oxo-chromen-2-yl)-5-hydroxy-4-methoxy-phenoxy]ethoxy]cyclobutanecarboxylic acid]: the “Clearance of Human microsome” value in series [1] is 6.15 mL/min/kg. For the same compound, the IC50 in series [2] is 0.502 µM.
In the case of `COc1cc(-c2cc(=O)c3cccc(Cl)c3o2)c(OCCO[C@H]2C[C@@H](C(=O)O)C2)cc1OCC1CC1` [Example C079, Cis-3-[2-[2-(8-chloro-4-oxo-chromen-2-yl)-5-(cyclopropylmethoxy)-4-methoxy-phenoxy]ethoxy]cyclobutanecarboxylic acid], in series [1], the “Clearance of Human microsome” value is listed as 6.15 mL/min/kg. The IC50 in series [2] was 5.5 µM.
Turning to `COc1cc(OCCO[C@H]2C[C@@H](C(=O)O)C2)c(-c2cc(=O)c3cccc(Cl)c3o2)cc1O` [Example C083, cis-3-[2-[2-(8-chloro-4-oxo-chromen-2-yl)-4-hydroxy-5-methoxy-phenoxy]ethoxy]cyclobutanecarboxylic acid], the “Clearance of Human microsome” value in series [1] is 6.15 mL/min/kg. Besides, the IC50 in series [2] was found to be 4.59 µM.
As to `O=c1cc(-c2cc(OC(F)F)c(OC(F)F)cc2OCCO[C@H]2C[C@@H](C(=O)O)C2)oc2c(Cl)cccc12` [Example C087, cis-3-[2-[2-(8-chloro-4-oxo-chromen-2-yl)-4,5-bis(difluoromethoxy)phenoxy]ethoxy]cyclobutanecarboxylic acid], in series [1], the “Clearance of Human microsome” value was determined as 6.15 mL/min/kg. The IC50 in series [2] amounted to 6.35 µM.
